Data published in US20160361380A1, “COMBINATION COMPOSITIONS FOR TREATING DISORDERS REQUIRING REMOVAL OR DESTRUCTION OF UNWANTED CELLULAR PROLIFERATIONS” (Nymox Corporation, priority 2015, published 2016).
Ends that are not written are not given here.

Columns and labels:
Type in all cases: in vivo, human
patients with BPH = test: Cross-over study: BPH patients on PBS plus oral medication, then additional DRUG injection, IPSS (Example Three); conditions: same patients after cross-over to DRUG vs PBS + oral medication
Method: In another study, patients with BPH were given an intraprostatic injection of PBS pH 7.2 vehicle alone, under double-blind conditions by a urologist in an office setting under ultrasound guidance. Patients were followed for 1 to 3 years with regular physical examinations, laboratory tests, and evaluations of symptoms. Patients who received PBS vehicle alone injections and who subsequently received in addition conventional oral medications used to treat BPH such as alpha blockers were assessed before and after receiving an additional injection of DRUG in phosphate buffered saline pH 7.2 (“PBS”). Symptomatic evaluation was measured by the International Prostate Symptom Score (IPSS) which is a quantitative scale used to gauge prostatic symptomatic improvement or worsening. The difference from baseline IPSS was compared in patients who were given blinded PBS only plus conventional oral medications vs results in the same patients on oral medications after cross-over to DRUG.

[1] = test system: patients with BPH not previously on conventional oral medications; test: BPH study in patients never before on oral BPH medications, injection then oral medications, Symptom Score (Example Two)
Method: In a study of 30 patients who had not previously ever taken conventional approved oral medications for their BPH, the patients received a double-blind single injection of DRUG (n=21) or vehicle alone (placebo) (n=9) and were followed clinically for 2-5 years. Patients from both of the above drug and vehicle only placebo groups who had not previously received conventional oral medications and subsequently went on conventional oral medications were evaluated for their responses to the conventional oral BPH medications.

[2] = test system: patients with BPH who subsequently underwent surgical treatment; test: BPH study: single injection, subsequent surgical treatment, Symptom Score (Example Four)
From the text: 973 patients who had not previously ever undergone surgical procedures for their BPH (including all types of surgical procedures such as transurethral resection of the prostate, laser ablation, microwave, needle ablation, and other minimally invasive surgical treatments) received a double-blind single injection of DRUG or vehicle alone (placebo) and were followed clinically for 2-5 years. All (N=58) patients from the above drug and vehicle alone placebo groups who had not previously undergone surgical treatment for their BPH and who subsequently underwent surgical treatment for their BPH (N=58) were then evaluated for their responses to the surgical procedures.

[3] = test system: patients with benign prostatic hyperplasia (BPH); test: Double-blind BPH study, single intraprostatic injection followed by conventional oral BPH medications, IPSS (Example One); conditions: NTP peptide plus additional oral medication vs placebo plus additional oral medication
From the text: In a study of 97 patients who had or had not previously ever taken conventional approved oral medications for their benign prostatic hyperplasia (BPH), the patients received a double-blind single injection of a specific peptide described by the amino acid sequence Ile-Asp-Gln-Gln-Val-Leu-Ser-Arg-Ile-Lys-Leu-Glu-Ile-Lys-Arg-Cys-Leu (hereinafter “DRUG”) (n=61) or vehicle alone (placebo) (n=36) and were followed clinically for 2-5 years. Patients with BPH were given an intraprostatic injection of either a) DRUG in phosphate buffered saline pH 7.2 (“PBS”) or b) PBS alone, under double-blind conditions by a urologist in an office setting under ultrasound guidance. Patients were followed for 2 to 5 years with regular physical examinations, laboratory tests, and evaluations of symptoms. […]
Symptomatic evaluation was measured by the International Prostate Symptom Score (IPSS) which is a quantitative scale used to gauge prostatic symptomatic improvement or worsening. The IPSS quantifies the following: 1) incomplete bladder emptying after urination; 2) frequent urination; 3) stopping and starting during urination; 4) urgent need to urinate; 5) weakness of urinary stream; 6) need to push or strain during urination; 7) need to urinate after going to sleep at night (nocturia). […]

In the case of IDQQVLSRIKLEIKRCL [DRUG], the “Mean IPSS Improvement, when compared to the control” value (patients with BPH) is reported as “about 110%”, the “Mean IPSS Improvement, when compared to the control” value ([1]; naive patients, NTP peptide then oral medication vs placebo then oral medication) is reported as “about 221%” and the “mean improvement in Symptom Score” value ([1]; oral-medication-naive patients, single injection then conventional oral BPH medication, 2-5 years, n=21) is reported as 7.48 points. For the same sequence, the “Mean IPSS Improvement, when compared to the control” value ([2]; NTP peptide prior to surgical treatment vs placebo prior to surgery) was “about 142%”, the “mean improvement in Symptom Score after surgery” value ([2]; single injection, subsequent surgical treatment for BPH, n=31) was 15.3 points and the “Mean IPSS Improvement, when compared to the control” value [3] was “about 40%”.
